Data taken from patent publication US8394765B2, “Methods of treating obesity with two different anti-obesity agents” (Amylin Pharmaceuticals LLC, priority 2004, dated 2013).

What was measured:
[1] = DIO rats, amylin and phentermine, body weight and body composition (Example 4); format: in vivo, rat
Protocol: The combination of amylin and catecholaminergic agonist, phentermine, were also tested for effects on changes in body weight and body composition. Phentermine is classically referred to as a catecholaminergic agonist as it actually hits NA/5-HT receptors. DIO male rats were fattened and divided into four treatment groups, as described above. Each group was implanted with subcutaneous osmotic mini-pumps and/or inserted with an oral gavage, designed to deliver vehicle, phentermine (10 mg/kg/day), amylin (100 μg/kg/day) or phentermine (10 mg/kg/day)+amylin (100 μg/kg/day) for a 14 day period. The mini-pump contained either vehicle (50% DMSO in water) or amylin while the oral gavage administered either sterile water or phentermine. Body weight was recorded daily and body composition was measured prior to and after drug treatment using NMR.

[2] = 24-week randomized, double-blind, active-drug-controlled study of pramlintide and metreleptin in overweight and obese subjects (Example 8); format: in vivo, human
Protocol: To evaluate inter alia the safety, tolerability and effect of the combination of an amylin agonist (pramlintide) and a leptin (metreleptin) on changes in body weight, a 24-week, randomized, double-blind, active-drug-controlled, multicenter study was conducted under USFDA approved protocols. Secondary objectives of the study were the determination of the pharmacokinetics of pramlintide and leptin, waist circumference, rate of change in body weight, and patient reported outcomes including for example without limitation perception of well-being related to weight change and mood. The study enrolled overweight and obese subjects with defined BMI ([…]), with enrollment statistics as provided in Table 2. […] Subjects treated with pramlintide/metreleptin lost an average of 25 pounds from the start of the 24-week study compared with an average of 17 pounds for subjects treated with pramlintide alone.
In an initial lead-in phase, all subjects received dietary instructions and treatment with pramlintide at 180 mcg BID for two weeks, followed by pramlintide at 360 mcg BID for two weeks. Subjects who completed the 4-week lead-in period and who lost 2-8 percent body weight during this period were eligible to continue the study. The term “enrolled” (Table 2) refers to subjects (N=177) receiving at least one dose of pramlintide during the lead-in period. The term “non-randomized” refers to subjects not continuing in the study past the lead-in period. The term “evaluable” refers to subjects who completed Visit 9 (Week 16) study procedures and adequately complied with the study protocol.
After the 4-week lead-in period, for the remaining 20 weeks of the study the subjects were randomized in a 2:2:1 ratio to one of three groups with BID treatment of 1) pramlintide 360 mcg/metreleptin 5 mg (“Leptin+Pramlintide”); 2) pramlintide 360 mcg/placebo (“Pramlintide”); or 3) metreleptin 5 mg/placebo (“Leptin”).

[3] = DIO (Levin) rats, amylin and CB-1 antagonist rimonabant, body weight and body composition (Example 5); format: in vivo, rat
Protocol: These rats were developed by Barry Levin from a line of Crl:CD®(SD)BR rats that are prone to become obese on a diet relatively high in fat and energy. They were housed individually in shoebox cages at 22 C in a 12/12-hour light dark cycle. […] Rats were habituated to oral gavage for 1 week prior to treatment. Rimonabant was administered at a range of doses (0.1, 0.3, 1.0, 3.0. 10 mg/kg/day) by oral gavage. Amylin (dissolved in 50% DMSO sterile water) or vehicle was administered by mini-pump (100 μg/kg/day). Rimonabant was always delivered just prior to lights out. Food intake and body weight were measured at 1 and 2 weeks post-treatment. Body composition was measured prior to and after drug treatment using NMR (Echo Medical Systems, Houston, Tex.). For body composition measurements, rats were briefly placed (˜1 min) in a well-ventilated plexiglass tube that was then inserted into a specialized rodent NMR machine. Rats were scanned prior to pump implantation and on the final day of the experiment. This enabled the calculation of changes in actual grams of fat and dry lean tissue (e.g., grams of body fat after treatment−grams of body fat at baseline=change in grams of body fat) and changes in % body composition for fat and dry lean tissue (e.g., % body fat after treatment−% body fat at baseline=change in % body fat).

[4] = DIO rats, amylin and sibutramine, body weight and body composition (Example 4); format: in vivo, rat
Protocol: Rat amylin was dissolved in 50% DMSO in sterile water and sibutramine was dissolved in sterile water. Each group was implanted with subcutaneous osmotic mini-pumps designed to deliver vehicle, sibutramine (3 mg/kg/day) or amylin (100 μg/kg/day) for a 14 day period. Body weight and food intake were recorded daily. Body composition was measured prior to and after drug treatment using NMR (Echo Medical Systems, Houston, Tex.). For body composition measurements, rats were briefly placed (˜1 min) in a well-ventilated plexiglass tube that was then inserted into a specialized rodent NMR machine. Rats were scanned prior to pump implantation and on the final day of the experiment. This enabled the calculation of changes in actual grams of fat and dry lean tissue (e.g., grams of body fat after treatment−grams of body fat at baseline=change in grams of body fat) and changes in % body composition for fat and dry lean tissue (e.g., % body fat after treatment−% body fat at baseline=change in % body fat).

[5] = DIO rats, amylin and PYY(3-36), body weight and body composition (Example 7); format: in vivo, rat
Protocol: Each group was implanted with subcutaneous osmotic mini-pumps, designed to deliver vehicle, PYY(3-36) (1000 μg/kg/day), amylin (100 μg/kg/day) or PYY(3-36) (1000 μg/kg/day)+amylin (100 μg/kg/day) for a 14 day period. PYY(3-36) was administered by mini-pump at a range of doses (100, 200, 400, 800, 1000 μg/kg/day). Amylin 100 μg/kg/day (dissolved in 50% DMSO sterile water), PYY(3-36) (dissolved in 50% DMSO sterile water) or vehicle was administered by mini-pump. Food intake and body weight was recorded daily. Body composition was measured prior to and after drug treatment using NMR (Echo Medical Systems, Houston, Tex.). For body composition measurements, rats were briefly placed (˜1 min) in a well-ventilated plexiglass tube that was then inserted into a specialized rodent NMR machine. Rats were scanned prior to pump implantation and on the final day of the experiment. This enabled the calculation of changes in actual grams of fat and dry lean tissue (e.g., grams of body fat after treatment−grams of body fat at baseline […]) and changes in % body composition for fat and dry lean tissue (e.g., % body fat after treatment−% body fat at baseline=change in % body fat).

[6] = DIO rats, amylin and exendin-4 analog, body weight and body composition (Example 6); format: in vivo, rat
Protocol: […]. Prior to drug administration rats had typically attained a mean body weight of 500 g Exendin-4 analog was administered by minipump at a range of doses (0.3, 1, 3, 10, 30 μg/kg/day). Amylin (dissolved in 50% DMSO in water) or vehicle was administered by mini-pump (100 μg/kg/day). Body weight and food intake was recorded daily. Body composition was measured prior to and after drug treatment using NMR (Echo Medical Systems, Houston, Tex.). For body composition measurements, rats were briefly placed (˜1 min) in a well-ventilated plexiglass tube that was then inserted into a specialized rodent NMR machine. Rats were scanned prior to pump implantation and on the final day of the experiment. This enabled the calculation of changes in actual grams of fat and dry lean tissue (e.g., grams of body fat after treatment−grams of body fat at baseline=change in grams of body fat) and changes in % body composition for fat and dry lean tissue (e.g., % body fat after treatment−% body fat at baseline=change in % body fat).

[7] = treated test animals; e.g. provoking marked hyperlactemia followed by hyperglycemia; cited from earlier work
[8] = compared to human amylin; cited from earlier work
[9] = 4-week pramlintide lead-in, arm of later randomization

With CC(C)(N)Cc1ccccc1 [phentermine] the “changes in body fat (fat mass)” value ([1]; after two weeks, FIG. 11B) was “modest amount of fat mass loss”, the “changes in body protein (lean mass)” value ([1]; after two weeks, FIG. 11C) was “unchanged or tended to be lost” and the “vehicle-corrected decrease in percent body weight” value ([1]; two weeks, phentermine 10 mg/kg/day oral gavage, amylin 100 μg/kg/day, FIG. 11A) was roughly 5%.

In the case of CC[C@H](C)[C@H](NC(=O)[C@@H]1CCCN1C(=O)CNC(=O)[C@H](Cc1ccccc1)NC(=O)[C@H](CC(N)=O)NC(=O)[C@H](CC(N)=O)NC(=O)[C@H](CO)NC(=O)[C@H](CO)NC(=O)[C@H](Cc1c[nH]cn1)NC(=O)[C@@H](NC(=O)[C@H](CC(C)C)NC(=O)[C@H](Cc1ccccc1)NC(=O)[C@H](CC(N)=O)NC(=O)[C@H](C)NC(=O)[C@H](CC(C)C)NC(=O)[C@H](CCCNC(=N)N)NC(=O)[C@H](CCC(N)=O)NC(=O)[C@@H](NC(=O)[C@H](C)NC(=O)[C@@H]1CSSC[C@H](NC(=O)[C@@H](N)CCCCN)C(=O)N[C@@H](CC(N)=O)C(=O)N[C@@H]([C@@H](C)O)C(=O)N[C@@H](C)C(=O)N[C@@H]([C@@H](C)O)C(=O)N1)[C@@H](C)O)C(C)C)C(=O)N[C@@H](CC(C)C)C(=O)N1CCC[C@H]1C(=O)N1CCC[C@H]1C(=O)N[C@H](C(=O)N[C@@H](CC(N)=O)C(=O)N[C@H](C(=O)NCC(=O)N[C@@H](CO)C(=O)N[C@@H](CC(N)=O)C(=O)N[C@H](C(=O)N[C@@H](Cc1ccc(O)cc1)C(N)=O)[C@@H](C)O)C(C)C)[C@@H](C)O [pramlintide], the “rate of change in body weight, early rate” value ([2]; 0-12 weeks, evaluable population, FIG. 24) is reported as −0.23±0.04 kg/week, the “Mean Change in Body Weight” value ([2]; 4-week lead-in period in which all subjects received pramlintide (180 then 360 mcg BID), arm of later randomization) is reported as -3.65 kg and the “% Weight Loss During Lead-in <5% (share of subjects)” value [2, 9] is reported as 77%. The “% Weight Loss During Lead-in ≧5% (share of subjects)” value [2, 9] was 23%, the “rate of change in body weight, late rate” value ([2]; 12-20 weeks, evaluable population, FIG. 24) was −0.02±0.04 kg/week and the “weight reduction effect toward the end of the study (late rate, in words)” value ([2]; 12-20 weeks, FIG. 24) was “approached a late rate of zero”. For the same compound, the “course of weight loss towards the end of the study” value ([2]; human subjects, 24-week study) was “weight had stabilized towards the end of the 24-week study”, the “body weight reduction on average” value ([2]; human subjects, end of 24-week study, pramlintide 360 mcg BID, metreleptin 5 mg BID, p<0.001) was 8.4% and the “average weight lost from the start of the 24-week study” value ([2]; human subjects, pramlintide 360 mcg BID, metreleptin 5 mg BID) was 17 pounds.

With Cc1c(C(=O)NN2CCCCC2)nn(-c2ccc(Cl)cc2Cl)c1-c1ccc(Cl)cc1 [rimonabant] the “changes in body fat (fat mass)” value ([3]; after two weeks, FIG. 12B) was “Fat mass loss was evident”, the “changes in body protein (lean mass)” value ([3]; after two weeks, FIG. 12C) was “relatively equivalent increase in lean (protein) mass” and the “vehicle-corrected decrease in percent body weight” value ([3]; two weeks, rimonabant 3 mg/kg/day oral gavage, amylin 100 μg/kg/day, FIG. 12A) was roughly 4%.

In the case of CC(C)CC(N(C)C)C1(c2ccc(Cl)cc2)CCC1 (stereo not drawn) [sibutramine], the “changes in body fat (fat mass)” value ([4]; after two weeks, FIG. 10B) is reported as “Fat mass loss was evident”, the “changes in body protein (lean mass)” value ([4]; after two weeks, FIG. 10C) is reported as “relatively unchanged” and the “vehicle-corrected decrease in percent body weight” value ([4]; two weeks, sibutramine 3 mg/kg/day, amylin 100 μg/kg/day, FIG. 10A) is reported as roughly 6%.

In the case of PYY(3-36), the “changes in body fat (fat mass loss)” value ([5]; after two weeks, order PYY(3-36) alone, amylin alone, combination, FIG. 16B) is reported as “Increasing amount of fat mass loss” and the “vehicle-corrected decrease in percent body weight” value ([5]; two weeks, PYY(3-36) 1000 μg/kg/day, amylin 100 μg/kg/day, FIG. 16A) is reported as roughly 9%.

In the case of ^14Leu-exendin-4 [Exendin-4 analog], the “changes in body fat (fat mass)” value ([6]; after two weeks, FIG. 15B) is reported as “Fat mass loss was evident”, the “changes in body protein (lean mass)” value ([6]; after two weeks, FIG. 15C) is reported as “relatively equivalent increase in lean (protein) mass” and the “vehicle-corrected decrease in percent body weight” value ([6]; two weeks, exendin-4 analog 10 μg/kg/day, amylin 100 μg/kg/day, FIG. 15A) is reported as roughly 6%.

In the case of “^18Arg^25,28Pro-h-amylin (KCNTATCATQRLANFLVRSSNNFGPILPSTNVGSNTY)”, the “amylin activity in vivo” value [7] is given as “show amylin activity in vivo” and the “solubility and stability characteristics” value [8] is given as “more desirable solubility and stability characteristics”.

For “^25Pro^26Val^28,29 Pro-h-amylin (KCNTATCATQRLANFLVHSSNNFGPVLPPTNVGSNTY)”, the “solubility and stability characteristics” value [8] is listed as “more desirable solubility and stability characteristics”.

For “^28Pro-h-amylin (KCNTATCATQRLANFLVHSSNNFGAILPSTNVGSNTY)”, the “amylin activity in vivo” value [7] is listed as “show amylin activity in vivo”.

For “des-^1Lys-h-amylin (CNTATCATQRLANFLVHSSNNFGAILSSTNVGSNTY)”, the “amylin activity in vivo” value [7] is listed as “show amylin activity in vivo”.

In the case of “des-^1Lys^18Arg^25,28Pro-h-amylin (CNTATCATQRLANFLVHRSNNFGPILPSTNVGSNTY)”, the “amylin activity in vivo” value [7] is given as “show amylin activity in vivo”.

In the case of metreleptin, the “weight reduction effect toward the end of the study (late rate, in words)” value ([2]; 12-20 weeks, FIG. 24) is reported as “approached a late rate of zero”.
